In brackets after ≈: the same amount, converted by molar mass.
How the values were obtained:
Aspergillus niger = experiment: Antifungal activity, tube dilution method (MIC); format: cell-based; conditions: 168 h, read-out: Minimum inhibitory concentration, A. niger, tube dilution, 25 ± 1 °C, 7 days
Experimental: (§1) The in vitro antimicrobial activity of synthesized compounds was done by tube dilution method against Gram-positive bacteria: Staphylococcus aureus, Bacillus subtilis, Gram-negative bacteria: Escherichia coli, Klebsiella pneumonia, Salmonella typhi and fungal: Candida albicans and Aspergillus niger strains using cefadroxil and fluconazole as standard. Dilutions of test and standard compounds were prepared in double strength nutrient broth for bacterial strains and Sabouraud dextrose broth for fungal strains.

Candida albicans = experiment: Antifungal activity, tube dilution method (MIC); format: cell-based; conditions: 48 h, read-out: Minimum inhibitory concentration, C. albicans, tube dilution, 37 ± 1 °C, 48 h
Experimental: as §1

Staphylococcus aureus = experiment: Antimicrobial activity, tube dilution method (MIC); format: cell-based; conditions: 24 h, read-out: Minimum inhibitory concentration, S. aureus, tube dilution, 37 ± 1 °C, 24 h
Experimental: as §1

Bacillus subtilis = experiment: Antimicrobial activity, tube dilution method (MIC); format: cell-based; conditions: 24 h, read-out: Minimum inhibitory concentration, B. subtilis, tube dilution, 37 ± 1 °C, 24 h
Experimental: as §1

Salmonella typhi = experiment: Antimicrobial activity, tube dilution method (MIC); format: cell-based; conditions: Salmonella enterica, TYPHI, 24 h, read-out: Minimum inhibitory concentration, S. typhi
Experimental: as §1

Escherichia coli = experiment: Antimicrobial activity, tube dilution method (MIC); format: cell-based; conditions: 24 h, read-out: Minimum inhibitory concentration, E. coli, tube dilution, 37 ± 1 °C, 24 h
Experimental: as §1

Klebsiella pneumonia = experiment: Antimicrobial activity, tube dilution method (MIC); format: cell-based; conditions: Klebsiella pneumoniae, 24 h, read-out: Minimum inhibitory concentration, K. pneumonia, tube dilution, 37 ± 1 °C, 24 h
Experimental: as §1

[1] = Antioxidant activity: free radical scavenging method by DPPH assay; conditions: for % inhibition (DPPH), 25 μg/ml / % inhibition (DPPH), 50 μg/ml / % inhibition (DPPH), 75 μg/ml / % inhibition (DPPH), 100 μg/ml: 30 min, 517 nm; for IC50 (antioxidant activity, DPPH): calculated via graph of % inhibition
Experimental: The antioxidant activity of the newly synthesized compounds were evaluated spectrophotometrically using free radical scavenging method by DPPH (2,2-diphenyl-1-picrylhydrazyl) assay. The DPPH is a stable free radical with maximal absorption at 517 nm and is reduced to a corresponding hydrazine when it reacting with hydrogen donors. […] DPPH solution (3 μg/ml) was prepared in methanol and DPPH (in 1:1) solution was used for blank reference. Four dilutions of different concentrations (25, 50, 75 and 100 μg/ml) of each synthesized compound and standard (ascorbic acid) were prepared in the methanol and 1 ml of each concentration was added to 1 ml of DPPH solution. The solution mixture was shaken vigorously and kept in dark place for 30 min at room temperature and absorbance was measured by UV at 517 nm. Percentage inhibition of Free radical DPPH was calculated as follows:1 %Inhibition=ABlank-ASample/ABlank×100 where, ABlank: absorbance of the blank reaction, ASample: absorbance of the test compound.

[2] = test system: α-amylase enzyme (diastase); experiment: Antidiabetic activity: α-amylase inhibitory activity using diastase, colorimetric method; format: biochemical; conditions: for IC50 (antidiabetic activity, α-amylase): calculated via graph of % inhibition
Experimental: All the synthesized compounds were evaluated against α-amylase inhibitory activity by using diastase based on colorimetric method. 0.25 g of soluble potato starch was dissolved in 50 ml of 20 mM phosphate buffer by heating for 15 min. 1 mg diastase (amylase enzyme) was mixed in 100 ml of 20 mM phosphate buffer (pH 6.9) to obtain the enzyme solution. Different concentrations of all the synthesized derivatives were prepared by dissolving them in DMSO. […] 1 ml of enzyme solution was mixed with 1 ml of each synthesized derivatives and incubated for 10 min at 25 °C. Then 1 ml of this mixture was mixed with 1 ml of soluble potato starch solution in a tube and incubated for 10 min at 25 °C. Then tubes were closed after adding 1 ml of color reagent and placed into water bath for 15 min at 85 °C. The reaction mixture was removed from water bath after 15 min. After cooling, the reaction mixture was diluted with 9 ml of distilled water and the absorbance was taken at 540 nm in UV spectrophotometer. Blank solution was prepared by replacing the enzyme solution with buffer solution and absorbance was taken. Measurement of control was performed in identical manner by replacing the synthesized derivatives in 1 ml of DMSO.
Percentage inhibition of α-amylase enzyme was calculated by using following formula:1 %Inhibition=ABlank-ASample/ABlank×100

SMILES | MIC (Aspergillus niger) [mM] | MIC (Candida albicans) [mM] | MIC (Staphylococcus aureus) [mM] | MIC (Bacillus subtilis) [mM] | MIC (Salmonella typhi) [mM] | MIC (Escherichia coli) [mM] | MIC (Klebsiella pneumonia) [mM] | melting point [°C] | % inhibition (DPPH), 25 μg/ml [1] [%] | % inhibition (DPPH), 50 μg/ml [1] [%] | % inhibition (DPPH), 75 μg/ml [1] [%] | % inhibition (DPPH), 100 μg/ml [1] [%] | IC50 (antioxidant activity, DPPH) [1] [µg/mL] | % inhibition (α-amylase), 25 μg/ml [2] [%] | % inhibition (α-amylase), 50 μg/ml [2] [%] | % inhibition (α-amylase), 75 μg/ml [2] [%] | % inhibition (α-amylase), 100 μg/ml [2] [%] | IC50 (antidiabetic activity, α-amylase) [2] [µg/mL]
COc1cccc(C=C2SC(=O)NC2=O)c1 [Compound 16, 5-(3-Methoxybenzylidene)thiazolidine-2,4-dione] | 5.31 (≈ 1250 µg/mL) | 5.31 (≈ 1250 µg/mL) | 5.31 (≈ 1250 µg/mL) | 5.31 (≈ 1250 µg/mL) | 5.31 (≈ 1250 µg/mL) | 5.31 (≈ 1250 µg/mL) | 10.6 (≈ 2490 µg/mL) | 217 to 220 | 30.65 | 43.62 | 79.11 | 87.97 | 39.77 (≈ 169 µM) | 27.52 | 43.73 | 57.27 | 85.23 | 40.92 (≈ 174 µM)
O=Cc1ccc(C=C2SC(=O)NC2=O)cc1 [Compound 21, 4-((2,4-Dioxothiazolidin-5-ylidene)methyl)benzaldehyde] | 5.3 (≈ 1240 µg/mL) | 5.3 (≈ 1240 µg/mL) | 5.3 (≈ 1240 µg/mL) | 5.3 (≈ 1240 µg/mL) | 5.3 (≈ 1240 µg/mL) | 5.3 (≈ 1240 µg/mL) | 10.7 (≈ 2500 µg/mL) | 147 to 150 | 17.91 | 41.64 | 75.98 | 92.32 | 55.51 (≈ 238 µM) | 21.98 | 47.28 | 70.56 | 74.76 | 38.65 (≈ 166 µM)

— publication PMC6768028, “Synthesis, SAR and in vitro therapeutic potentials of thiazolidine-2,4-diones” (Chemistry Central Journal, 2018)
